This assay has as its target HPK1 (Homo sapiens (Human), UniProt Q92918). Put plainly: HPK1 biochemical enzyme assay (microfluidic mobility shift). The note with it: 1.5 nM HPK1, ATP 1 mM final, 60 min at RT, Caliper EZ Reader; read-out: HPK1 1000UMATP caliper IC50. The protocol: HPK1 biochemical enzyme assay: HPK1 enzyme inhibition was measured using a microfluidic mobility shift assay. Reactions were performed in a 384-well plate, containing 1.5 nM HPK1 (Invitrogen), in assay buffer (Cana Biosciences; pH 7.4). Test compounds were titrated in ten point curves (top final assay concentration 3 μM), and preincubated with enzyme/substrate mix for 30 min prior to initiation of the reaction by addition of ATP (1 mM final concentration) and substrate (1 μM final concentration; Carna Biosciences) diluted in assay buffer supplemented by MgCl2 (final assay concentration of 5 mM). Following 60 min incubation at RT, the reaction was terminated by addition of 60 μl/well termination buffer (Carna Biosciences) and signal determination using a Caliper EZ Reader (Perkin Elmer, UK).
Compounds having an activity designated as “A” provided an IC50≤100 nM; compounds having an activity designated as “B” provided an IC50>100 nM.

Chain of HPK1 (Q92918 whole entry): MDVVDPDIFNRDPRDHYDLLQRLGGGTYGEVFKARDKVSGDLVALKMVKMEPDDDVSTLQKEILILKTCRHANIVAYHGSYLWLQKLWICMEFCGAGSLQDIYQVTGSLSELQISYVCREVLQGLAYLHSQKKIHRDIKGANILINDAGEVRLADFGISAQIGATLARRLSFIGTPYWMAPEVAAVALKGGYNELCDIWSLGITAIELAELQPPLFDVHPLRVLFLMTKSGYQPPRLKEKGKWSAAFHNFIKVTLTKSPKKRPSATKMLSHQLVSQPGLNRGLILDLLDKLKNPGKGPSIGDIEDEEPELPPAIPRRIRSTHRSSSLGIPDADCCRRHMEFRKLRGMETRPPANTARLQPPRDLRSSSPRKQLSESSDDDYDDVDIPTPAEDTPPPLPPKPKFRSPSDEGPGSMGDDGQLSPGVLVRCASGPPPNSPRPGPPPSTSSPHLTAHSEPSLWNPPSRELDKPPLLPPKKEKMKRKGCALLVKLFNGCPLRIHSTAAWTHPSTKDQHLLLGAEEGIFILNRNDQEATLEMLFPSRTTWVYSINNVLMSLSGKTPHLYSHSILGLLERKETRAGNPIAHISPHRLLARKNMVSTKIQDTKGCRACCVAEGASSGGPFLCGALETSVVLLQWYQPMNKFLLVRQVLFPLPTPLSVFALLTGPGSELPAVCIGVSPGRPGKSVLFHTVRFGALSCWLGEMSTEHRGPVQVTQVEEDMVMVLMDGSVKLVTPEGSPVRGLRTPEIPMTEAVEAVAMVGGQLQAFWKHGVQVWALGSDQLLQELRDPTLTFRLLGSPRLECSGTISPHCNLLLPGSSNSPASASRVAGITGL

With `Cn1ccc2c(-c3cnc(Nc4ccc(N5CCC[C@@H](C(C)(C)O)C5)cc4)c4c3CNC4=O)ccnc21` [Compound I-12, (R)-4-((4-(3-(2-hydroxypropan-2-yl)piperidin-1-yl)phenyl)amino)-7-(1-methyl-1H-pyrrolo[2,3-b]pyridin-4-yl)-1,2-dihydro-3H-pyrrolo[3,4-c]pyridin-3-one], the half-inhibitory concentration (IC50) was no more than 100 nM.

As to `Cn1ccc2c(-c3cnc(Nc4ccc(S(C)(=O)=O)cc4)c4c3CNC4=O)ccnc21` [Compound I-9, 7-(1-methyl-1H-pyrrolo[2,3-b]pyridin-4-yl)-4-((4-(methylsulfonyl)phenyl)amino)-1,2-dihydro-3H-pyrrolo[3,4-c]pyridin-3-one], the half-maximal inhibitory concentration (IC50) was greater than 100 nM.

`CC(C)(O)C1CN(c2ccc(Nc3ncc(-c4ccncc4)c4c3C(=O)NC4)cc2)CCO1` (centres unmarked) [Compound I-27, 4-((4-(2-(2-hydroxypropan-2-yl)morpholino)phenyl)amino)-7-(pyridin-4-yl)-1,2-dihydro-3H-pyrrolo[3,4-c]pyridin-3-one]: the IC50 was greater than 100 nM.

On to `CN(C)Cc1cc(Nc2ncc(-c3cnc4cc(F)ccn34)c3c2C(=O)NC3)ccc1[C@H]1CCOC1` [Compound I-19, (R)-4-((3-((dimethylamino)methyl)-4-(tetrahydrofuran-3-yl)phenyl)amino)-7-(7-fluoroimidazo[1,2-a]pyridin-3-yl)-1,2-dihydro-3H-pyrrolo[3,4-c]pyridin-3-one], for which the 50% inhibitory concentration (IC50) was no more than 100 nM.

“4-((3-((dimethylamino)methyl)-4-(4-hydroxypiperidin-1-yl)phenyl)amino)-7-(1-methyl-1H-pyrrolo[2,3-b]pyridin-4-yl)-1,2-dihydro-3H-pyrrolo[3,4-c]pyridin-3-one [Compound I-21]”: the IC50 was greater than 100 nM.

Take `Cn1cncc1-c1cnc(Nc2ccc(N3CCNCC3)cc2)c2c1CNC2=O` [Compound I-26, 7-(1-methyl-1H-imidazol-5-yl)-4-((4-(piperazin-1-yl)phenyl)amino)-1,2-dihydro-3H-pyrrolo[3,4-c]pyridin-3-one]: the IC50 was greater than 100 nM.

As to `Cn1ccc2c(-c3cnc(Nc4ccc(N5CCC[C@H](C(C)(C)O)C5)cc4)c4c3CNC4=O)ccnc21` [Compound I-11, (S)-4-((4-(3-(2-hydroxypropan-2-yl)piperidin-1-yl)phenyl)amino)-7-(1-methyl-1H-pyrrolo[2,3-b]pyridin-4-yl)-1,2-dihydro-3H-pyrrolo[3,4-c]pyridin-3-one], the IC50 was no more than 100 nM.

With `Cn1ccc2c(-c3cnc(Nc4ccc(N5CCC(O)CC5)cc4)c4c3CNC4=O)ccnc21` [Compound I-8, 4-((4-(4-hydroxypiperidin-1-yl)phenyl)amino)-7-(1-methyl-1H-pyrrolo[2,3-b]pyridin-4-yl)-1,2-dihydro-3H-pyrrolo[3,4-c]pyridin-3-one], the IC50 is no more than 100 nM.

For `CC(C)(O)C1CN(c2ccc(Nc3ncc(-c4cnc5cc(F)ccn45)c4c3C(=O)NC4)cc2)CCO1` (centres unmarked) [Compound I-16, 7-(7-fluoroimidazo[1,2-a]pyridin-3-yl)-4-((4-(2-(2-hydroxypropan-2-yl)morpholino)phenyl)amino)-1,2-dihydro-3H-pyrrolo[3,4-c]pyridin-3-one], the half-maximal inhibitory concentration (IC50) is no more than 100 nM.

As for `CN1CCN(c2ccc(Nc3ncc(-c4ccncc4)c4c3C(=O)NC4)cc2)CC1` [Compound I-5, 4-((4-(4-methylpiperazin-1-yl)phenyl)amino)-7-(pyridin-4-yl)-1,2-dihydro-3H-pyrrolo[3,4-c]pyridin-3-one], the concentration for half-maximal inhibition (IC50) is greater than 100 nM.

Regarding `COCC1(O)CCN(c2ccc(Nc3ncc(-c4cnc5cc(F)ccn45)c4c3C(=O)NC4)cc2CN(C)C)CC1` [Compound I-22, 4-((3-((dimethylamino)methyl)-4-(4-hydroxy-4-(methoxymethyl)piperidin-1-yl)phenyl)amino)-7-(7-fluoroimidazo[1,2-a]pyridin-3-yl)-1,2-dihydro-3H-pyrrolo[3,4-c]pyridin-3-one], the IC50 is greater than 100 nM.

For `Cn1cncc1-c1cnc(Nc2ccc(N3CCC[C@@H](C(C)(C)O)C3)cc2)c2c1CNC2=O` [Compound I-25, (R)-4-((4-(3-(2-hydroxypropan-2-yl)piperidin-1-yl)phenyl)amino)-7-(1-methyl-1H-imidazol-5-yl)-1,2-dihydro-3H-pyrrolo[3,4-c]pyridin-3-one], the IC50 is greater than 100 nM.

As to `Cn1ccc2c(-c3cnc(Nc4ccc(N5CCC(O)CC5)cn4)c4c3CNC4=O)ccnc21` [Compound I-10, 4-((5-(4-hydroxypiperidin-1-yl)pyridin-2-yl)amino)-7-(1-methyl-1H-pyrrolo[2,3-b]pyridin-4-yl)-1,2-dihydro-3H-pyrrolo[3,4-c]pyridin-3-one], the IC50 is greater than 100 nM.

For the molecule `Cc1ccc2c(-c3cnc(Nc4ccc(N5CCC(O)CC5)cc4)c4c3CNC4=O)cnn2c1` [Compound I-13, 4-((4-(4-hydroxypiperidin-1-yl)phenyl)amino)-7-(6-methylpyrazolo[1,5-a]pyridin-3-yl)-1,2-dihydro-3H-pyrrolo[3,4-c]pyridin-3-one], the IC50 is no more than 100 nM.

Regarding `O=C1NCc2c(-c3cnc4cc(F)ccn34)cnc(Nc3ccc(N4CCC(O)CC4)cc3)c21` [Compound I-14, 7-(7-fluoroimidazo[1,2-a]pyridin-3-yl)-4-((4-(4-hydroxypiperidin-1-yl)phenyl)amino)-1,2-dihydro-3H-pyrrolo[3,4-c]pyridin-3-one], the IC50 was greater than 100 nM.

On to `CNC1CCN(c2ccc(Nc3ncc(-c4ccncc4)c4c3C(=O)NC4)cc2)CC1` [Compound I-23, 4-((4-(4-(methylamino)piperidin-1-yl)phenyl)amino)-7-(pyridin-4-yl)-1,2-dihydro-3H-pyrrolo[3,4-c]pyridin-3-one], for which the half-inhibitory concentration (IC50) was greater than 100 nM.

Regarding `CN(C)C[C@H]1CN(c2ccc(Nc3ncc(-c4ccnc5c4ccn5C)c4c3C(=O)NC4)cc2)CCO1` (single isomer, unassigned) [Compound I-18], the IC50 is no more than 100 nM.

In the case of `Cn1ccc2c(-c3cnc(Nc4ccc(N5CCC(O)CC5)nc4)c4c3CNC4=O)ccnc21` [Compound I-1, 4-((6-(4-hydroxypiperidin-1-yl)pyridin-3-yl)amino)-7-(1-methyl-1H-pyrrolo[2,3-b]pyridin-4-yl)-1,2-dihydro-3H-pyrrolo[3,4-c]pyridin-3-one], the IC50 is greater than 100 nM.

On to `CN(C)Cc1cc(Nc2ncc(-c3ccnc4c3ccn4C)c3c2C(=O)NC3)ccc1N1CCOCC1` [Compound I-7, 4-((3-((dimethylamino)methyl)-4-morpholinophenyl)amino)-7-(1-methyl-1H-pyrrolo[2,3-b]pyridin-4-yl)-1,2-dihydro-3H-pyrrolo[3,4-c]pyridin-3-one], for which the IC50 was no more than 100 nM.

In the case of `CN(C)C[C@@H]1CN(c2ccc(Nc3ncc(-c4ccnc5c4ccn5C)c4c3C(=O)NC4)cc2)CCO1` (single isomer, unassigned) [Compound I-17], the IC50 was no more than 100 nM.

`Cn1cncc1-c1cnc(Nc2ccc(N3CCC[C@H](C(C)(C)O)C3)cc2)c2c1CNC2=O` [Compound I-24, (S)-4-((4-(3-(2-hydroxypropan-2-yl)piperidin-1-yl)phenyl)amino)-7-(1-methyl-1H-imidazol-5-yl)-1,2-dihydro-3H-pyrrolo[3,4-c]pyridin-3-one]: the IC50 was no more than 100 nM.

Turning to `CC(C)(O)[C@@H]1CCCN(c2ccc(Nc3ncc(-c4cnc5cc(F)ccn45)c4c3C(=O)NC4)cc2)C1` (single isomer, unassigned) [Compound I-4], the IC50 was greater than 100 nM.

`CC(C)(O)[C@H]1CN(c2ccc(Nc3ncc(-c4ccncc4)c4c3C(=O)NC4)cc2)CCO1` [Compound I-28, (R)-4-((4-(2-(2-hydroxypropan-2-yl)morpholino)phenyl)amino)-7-(pyridin-4-yl)-1,2-dihydro-3H-pyrrolo[3,4-c]pyridin-3-one]: the half-maximal inhibitory concentration (IC50) is greater than 100 nM.

In the case of `CN1CCN(c2ccc(Nc3ncc(-c4cnc5cc(F)ccn45)c4c3C(=O)NC4)cc2)CC1` [Compound I-15, 7-(7-fluoroimidazo[1,2-a]pyridin-3-yl)-4-((4-(4-methylpiperazin-1-yl)phenyl)amino)-1,2-dihydro-3H-pyrrolo[3,4-c]pyridin-3-one], the IC50 was greater than 100 nM.

Regarding `CN(C)Cc1cc(Nc2ncc(-c3cnc4cc(F)ccn34)c3c2C(=O)NC3)ccc1C1CCOCC1` [Compound I-6, 4-((3-((dimethylamino)methyl)-4-(tetrahydro-2H-pyran-4-yl)phenyl)amino)-7-(7-fluoroimidazo[1,2-a]pyridin-3-yl)-1,2-dihydro-3H-pyrrolo[3,4-c]pyridin-3-one], the IC50 is no more than 100 nM.

Consider `CN(C)Cc1cc(Nc2ncc(-c3cnc4cc(F)ccn34)c3c2C(=O)NC3)ccc1[C@@H]1CCOC1` [Compound I-20, (S)-4-((3-((dimethylamino)methyl)-4-(tetrahydrofuran-3-yl)phenyl)amino)-7-(7-fluoroimidazo[1,2-a]pyridin-3-yl)-1,2-dihydro-3H-pyrrolo[3,4-c]pyridin-3-one], for which the half-inhibitory concentration (IC50) is greater than 100 nM.

One may read the IC50 as the concentration that gives 50% inhibition.

Values taken from US12466841B2, “Substituted pyrrolo[3,4-c]pyridines as HPK1 antagonists” (Nimbus Saturn, Inc., priority 2021, dated 2025).
